Values joined by “and” are separate entries in the source; they are usually repeats but may differ in a detail not shown here. Identical values can stand only once. Toxic doses and inconclusive results are not listed.

This experiment deals with L1210 leukemia ip in BDF1 mice, survival T/C. The experiment in a line: NCI In Vivo Anticancer Drug Screen. Data for tumor model L1210 Leukemia (intraperitoneal) in B6D2F1 (BDF1) mice. To be noted: endpoint: mean survival time, higher = longer survival. The method, boiled down: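 Ratio derived from survival: compound-dosed mice over vehicle-dosed mice, all bearing a transplantable tumor.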

Where [1] appears, read: dose: 100.0 mg/kg/injection, schedule: Q04DX003 (ip), vehicle: saline.
The mark [2] stands for this setting: dose: 200.0 mg/kg/injection, schedule: Q04DX003 (ip), vehicle: saline.
Setting [3] is: dose: 400.0 mg/kg/injection, schedule: Q04DX003 (ip), vehicle: saline.
Where [4] appears, read: dose: 75.0 mg/kg/injection, schedule: Q01DX001 (ip), vehicle: carboxymethylcellulose (CMC).

For the compound `O=C/C=C\C=C/Nc1ccc([N+](=O)[O-])cc1[N+](=O)[O-]`, the T/C is 94 % of control (dose: 100.0 mg/kg/injection, schedule: Q04DX002 (ip), vehicle: DMSO); 98 % of control (dose: 200.0 mg/kg/injection, schedule: Q04DX002 (ip), vehicle: DMSO); 102 % of control (dose: 400.0 mg/kg/injection, schedule: Q04DX002 (ip), vehicle: DMSO).

Consider `OC(CI)C(O)CI` (stereo not drawn), for which the T/C was 104 % of control (dose: 75.0 mg/kg/injection, schedule: Q01DX001 (ip), vehicle: other); 106 % of control and 86 % of control (dose: 150.0 mg/kg/injection, schedule: Q01DX001 (ip), vehicle: other); 101 % of control (dose: 300.0 mg/kg/injection, schedule: Q01DX001 (ip), vehicle: other).

Take `Cc1ccccc1NP1(=O)OCCCN1Cc1ccc(Cl)cc1` (stereo not drawn): the T/C (dose: 50.0 mg/kg/injection, schedule: Q01DX001 (ip), vehicle: saline) is 106 % of control; the T/C (dose: 100.0 mg/kg/injection, schedule: Q01DX001 (ip), vehicle: saline) is 102 % of control; the T/C (dose: 200.0 mg/kg/injection, schedule: Q01DX001 (ip), vehicle: saline) was 106 % of control; the T/C (dose: 400.0 mg/kg/injection, schedule: Q01DX001 (ip), vehicle: saline) was 100 % of control.

For `NC(=O)Nc1cc(N)cc(NC(N)=O)c1`, the T/C is 96 % of control under setting [1], 107 % of control under setting [2] and 106 % of control under setting [3].

Take `OCc1cc2ccccc2c2ccccc12`: the T/C (dose: 222.0 mg/kg/injection, schedule: Q01DX Z (ip), vehicle: carboxymethylcellulose (CMC)) was 96 % of control; the T/C (dose: 330.0 mg/kg/injection, schedule: Q01DX Z (ip), vehicle: carboxymethylcellulose (CMC)) is 90 % of control; the T/C (dose: 500.0 mg/kg/injection, schedule: Q01DX Z (ip), vehicle: carboxymethylcellulose (CMC)) was 93 % of control; the T/C (dose: 750.0 mg/kg/injection, schedule: Q01DX Z (ip), vehicle: carboxymethylcellulose (CMC)) was 88 % of control.

On to `C/C=C1/CC(C)C(O)(CO)C(=O)OCC2=CCN3CCC(OC1=O)C23` (stereo not drawn), for which the T/C under setting [4] was 100 % of control.

For the compound `O=C(NC(=S)Nc1ccccc1)c1cccc(Cl)c1`, the T/C under setting [4] is 95 % of control and the T/C (dose: 150.0 mg/kg/injection, schedule: Q01DX001 (ip), vehicle: carboxymethylcellulose (CMC)) is 96 % of control.

Take `ClC(Cl)c1ccccc1`: the T/C is, setting by setting: (dose: 100.0 mg/kg/injection, schedule: Q04DX003 (ip), vehicle: saline with Tween-80) 98 % of control; (dose: 200.0 mg/kg/injection, schedule: Q04DX003 (ip), vehicle: saline with Tween-80) 95 % of control; (dose: 400.0 mg/kg/injection, schedule: Q04DX003 (ip), vehicle: saline with Tween-80) 87 % of control.

As to `CCOC(=O)C1(C(=O)OCC)NC(=O)CC1c1ccccc1` (stereo not drawn), the T/C is, setting by setting: (dose: 100.0 mg/kg/injection, schedule: Q01DX009 (ip), vehicle: Klucel (hydroxypropylcellulose) (HPC)) 94 % of control; (dose: 100.0 mg/kg/injection, schedule: Q04DX003 (ip), vehicle: Klucel (hydroxypropylcellulose) (HPC)) 92 % of control; (dose: 200.0 mg/kg/injection, schedule: Q01DX009 (ip), vehicle: Klucel (hydroxypropylcellulose) (HPC)) 101 % of control; (dose: 200.0 mg/kg/injection, schedule: Q04DX003 (ip), vehicle: Klucel (hydroxypropylcellulose) (HPC)) 100 % of control; (dose: 400.0 mg/kg/injection, schedule: Q01DX009 (ip), vehicle: Klucel (hydroxypropylcellulose) (HPC)) 92 % of control; (dose: 400.0 mg/kg/injection, schedule: Q04DX003 (ip), vehicle: Klucel (hydroxypropylcellulose) (HPC)) 105 % of control.

In the case of `Cc1ccc(S(=O)(=O)N2CCCCC2)cc1`, the T/C reads like this: under setting [1], 91 % of control; under setting [2], 96 % of control; under setting [3], 97 % of control.

For the compound `CC(C)CC1(C(C)C)C(=O)NC(=O)NC1=O`, the T/C was 89 % of control (dose: 75.0 mg/kg/injection, schedule: Q01DX001 (ip), vehicle: saline) and 98 % of control (dose: 150.0 mg/kg/injection, schedule: Q01DX001 (ip), vehicle: saline).

Regarding `COc1cccc(/C(C)=N\OC(=O)N(C)C)c1`, the T/C (dose: 100.0 mg/kg/injection, schedule: Q01DX001 (ip), vehicle: carboxymethylcellulose (CMC)) was 95 % of control; the T/C (dose: 200.0 mg/kg/injection, schedule: Q01DX001 (ip), vehicle: carboxymethylcellulose (CMC)) is 95 % of control; the T/C (dose: 400.0 mg/kg/injection, schedule: Q01DX001 (ip), vehicle: carboxymethylcellulose (CMC)) is 98 % of control.

With `O=C(Nc1ccc(C2=NCCN2)cc1)c1cc(C(=O)Nc2ccc(C3=NCCN3)cc2)ncn1`, the T/C reads like this: (dose: 0.47 mg/kg/injection, schedule: Q01DX015 (ip), vehicle: methylcellulose (MC)) 96 % of control; (dose: 0.93 mg/kg/injection, schedule: Q01DX015 (ip), vehicle: methylcellulose (MC)) 108 % of control; (dose: 0.93 mg/kg/injection, schedule: Q01DX Z (ip), vehicle: carboxymethylcellulose (CMC)) 94 % of control; (dose: 1.87 mg/kg/injection, schedule: Q01DX015 (ip), vehicle: methylcellulose (MC)) 100 % of control and 101 % of control; (dose: 1.87 mg/kg/injection, schedule: Q01DX Z (ip), vehicle: carboxymethylcellulose (CMC)) 120 % of control; (dose: 3.75 mg/kg/injection, schedule: Q01DX015 (ip), vehicle: methylcellulose (MC)) 102 % of control and 116 % of control. Moreover, the T/C reads like this: (dose: 6.25 mg/kg/injection, schedule: Q01DX001 (ip), vehicle: methylcellulose (MC)) 112 % of control; (dose: 7.5 mg/kg/injection, schedule: Q01DX015 (ip), vehicle: methylcellulose (MC)) 116 % of control and 118 % of control; (dose: 12.5 mg/kg/injection, schedule: Q01DX001 (ip), vehicle: methylcellulose (MC)) 108 % of control; (dose: 15.0 mg/kg/injection, schedule: Q01DX015 (ip), vehicle: other) 153 % of control; (dose: 15.0 mg/kg/injection, schedule: Q01DX Z (ip), vehicle: carboxymethylcellulose (CMC)) 303 % of control; (dose: 25.0 mg/kg/injection, schedule: Q01DX001 (ip), vehicle: methylcellulose (MC)) 104 % of control. The T/C runs as follows: (dose: 30.0 mg/kg/injection, schedule: Q01DX015 (ip), vehicle: methylcellulose (MC)) 93 % of control; (dose: 30.0 mg/kg/injection, schedule: Q01DX015 (ip), vehicle: other) 241 % of control; (dose: 30.0 mg/kg/injection, schedule: Q01DX Z (ip), vehicle: carboxymethylcellulose (CMC)) 224 % of control; (dose: 36.0 mg/kg/injection, schedule: Q01DX001 (ip), vehicle: carboxymethylcellulose (CMC)) 118 % of control; (dose: 36.0 mg/kg/injection, schedule: Q01DX001 (ip), vehicle: other) 112 % of control; (dose: 50.0 mg/kg/injection, schedule: Q01DX001 (ip), vehicle: methylcellulose (MC)) 122 % of control. The T/C by setting is: (dose: 53.0 mg/kg/injection, schedule: Q01DX001 (ip), vehicle: carboxymethylcellulose (CMC)) 118 % of control; (dose: 53.0 mg/kg/injection, schedule: Q01DX001 (ip), vehicle: other) 121 % of control; (dose: 60.0 mg/kg/injection, schedule: Q01DX015 (ip), vehicle: other) 102 % of control; (dose: 60.0 mg/kg/injection, schedule: Q01DX Z (ip), vehicle: carboxymethylcellulose (CMC)) 154 % of control; (dose: 79.0 mg/kg/injection, schedule: Q01DX001 (ip), vehicle: carboxymethylcellulose (CMC)) 124 % of control; (dose: 120.0 mg/kg/injection, schedule: Q01DX Z (ip), vehicle: carboxymethylcellulose (CMC)) 121 % of control. In addition, the T/C by setting is: (dose: 180.0 mg/kg/injection, schedule: Q01DX001 (ip), vehicle: carboxymethylcellulose (CMC)) 157 % of control; (dose: 180.0 mg/kg/injection, schedule: Q01DX001 (ip), vehicle: other) 162 % of control; (dose: 270.0 mg/kg/injection, schedule: Q01DX001 (ip), vehicle: carboxymethylcellulose (CMC)) 169 % of control; (dose: 405.0 mg/kg/injection, schedule: Q01DX001 (ip), vehicle: carboxymethylcellulose (CMC)) 193 % of control.

In the case of `COc1cc(OC)c(NC(=O)C(Cl)(Cl)Cl)cc1Cl`, the T/C by setting is: (dose: 100.0 mg/kg/injection, schedule: Q04DX002 (ip), vehicle: Klucel (hydroxypropylcellulose) (HPC)) 98 % of control; (dose: 200.0 mg/kg/injection, schedule: Q04DX002 (ip), vehicle: Klucel (hydroxypropylcellulose) (HPC)) 95 % of control; (dose: 400.0 mg/kg/injection, schedule: Q04DX002 (ip), vehicle: Klucel (hydroxypropylcellulose) (HPC)) 95 % of control.
